# According to patent US8785600B2, “Anti-GCC antibody molecules and related compositions and methods” (Millennium Pharmaceuticals, Inc., priority 2009, dated 2014):
# Values joined by “and” are separate entries in the source; they are usually repeats but may differ in a detail not shown here. Equal entries are not always repeated.
# Key:
# [1] = tested on: GCC-ECD-Fc (TOK107-hIg); assay: BIACORE T100 affinity measurement; format: binding, human; details: for ka (M^−1s^−1) / kd (s^−1): Avg. (95% Conf. Int.); for ka / kd: single replicates, immobilized mAb, 22° C.
# Sequence of GCC-ECD-Fc (TOK107-hIg) (as listed by the source): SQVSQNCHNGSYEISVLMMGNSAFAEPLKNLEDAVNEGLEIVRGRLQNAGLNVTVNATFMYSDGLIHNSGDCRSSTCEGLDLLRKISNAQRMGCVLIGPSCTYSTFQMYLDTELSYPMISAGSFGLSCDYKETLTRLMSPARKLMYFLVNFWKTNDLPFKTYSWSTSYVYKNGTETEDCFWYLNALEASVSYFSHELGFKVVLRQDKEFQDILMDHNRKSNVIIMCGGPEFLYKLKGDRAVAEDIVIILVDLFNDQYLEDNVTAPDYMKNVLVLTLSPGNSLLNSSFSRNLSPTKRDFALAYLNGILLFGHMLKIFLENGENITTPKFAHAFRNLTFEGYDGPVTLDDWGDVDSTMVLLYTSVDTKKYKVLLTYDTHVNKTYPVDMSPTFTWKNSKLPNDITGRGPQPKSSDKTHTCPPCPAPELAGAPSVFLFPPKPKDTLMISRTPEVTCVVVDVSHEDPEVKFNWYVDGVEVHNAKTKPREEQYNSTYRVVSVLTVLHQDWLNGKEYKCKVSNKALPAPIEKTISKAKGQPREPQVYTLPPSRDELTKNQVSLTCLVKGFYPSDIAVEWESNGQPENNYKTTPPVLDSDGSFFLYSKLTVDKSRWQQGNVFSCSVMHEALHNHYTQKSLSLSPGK
# Procedure: Step 1: MAb 5F9 (Prep A) was diluted to 20 μg/mL in 10 mM sodium acetate, pH 4.0 and Reference 5F9 MAb (Prep B) was diluted to 10 μg/mL in 10 mM sodium acetate, pH 4.0. Each mAb was covalently immobilized to several CM4 BIACORE chips using standard amine coupling. For each CM4 chip prepared, Prep A 5F9 was immobilized over two flow cells at around 75-100 RU while Prep B 5F9 was immobilized to one flow cell at around 70-80 RU. The remaining fourth flow cell of each CM4 chip was used as the reference flow cell.
# Step 2: The stock concentration of GCC-ECD-Fc (TOK107-hIg) was determined using the methods detailed by Pace et al. in Protein Science, 4:2411 (1995), and Pace and Grimsley in Current Protocols in Protein Science 3.1.1-3.1.9 (2003).
# Step 3: For each prepared CM4 chip described in Step 1, GCC-ECD-Fc was injected for 2 minutes at a concentration range of 202 nM-1.6 nM (2× serial dilution) followed by a 7 minute dissociation. Samples were randomly injected in triplicate with several buffer inject cycles interspersed for double referencing. […] A flow rate of 100 μL/min was used for all experiments and all surfaces were regenerated with a 20 second pulse of 10 mM Glycine-HCl (pH 2.0). All samples were prepared in the running buffer which was Hepes-buffered saline, 0.005% polysorbate 20, pH 7.4 (HBS-P) with 100 μg/mL of BSA added.
# Step 4: All sensorgram (plot of surface plasmon resonance vs time) data were processed with Scrubber 2.0 software (BioLogic Software, Campbell, Australia) and globally fit to a 1:1 interaction model including a term for the mass transport constant km using CLAMP™ software (Myszka and Morton Trends Biochem. Sci. 23:149-150 (1998)).
# The 1:1 model provided a very good fit to the data as long as the mAb immobilization levels were kept low enough so that the Rmax resulting from the global analysis of the sensorgram data was at least below 12 RU for each surface. […] Data from two flow cells of GCC-ECD-Fc binding to Prep A 5F9 from the same CM4 chip were simultaneously fit whenever possible, however. […] This isn't surprising due to the fact that GCC-ECD-Fc is a bivalent construct and a higher surface density of immobilized mAb most likely increases the probability that the GCC-ECD-Fc binds avidly to the surface. Replicates reported for this study include only those data that fit well to the 1:1 interaction model. The resulting KD's and rate constants of all replicates for Prep A 5F9 and the Prep B reference mAb are listed in Table 9 and Table 10, respectively.
# [2] = biological target: T1, GCC ECD truncation mutants expressed in 293 cells (Homo sapiens, UniProt P25092); assay: Binding to GCC ECD truncation mutants (IP / Western blot); details: Δ1-32
# T1 construct: Truncation mutants of the GCC ECD were generated (FL mature peptide and 8 truncations); expressed in transfected cells; host or cells: 293 cells (lysates, immunoprecipitation then anti-FLAG western blot)
# T1 sequence (P25092 33-430, stated change not applied): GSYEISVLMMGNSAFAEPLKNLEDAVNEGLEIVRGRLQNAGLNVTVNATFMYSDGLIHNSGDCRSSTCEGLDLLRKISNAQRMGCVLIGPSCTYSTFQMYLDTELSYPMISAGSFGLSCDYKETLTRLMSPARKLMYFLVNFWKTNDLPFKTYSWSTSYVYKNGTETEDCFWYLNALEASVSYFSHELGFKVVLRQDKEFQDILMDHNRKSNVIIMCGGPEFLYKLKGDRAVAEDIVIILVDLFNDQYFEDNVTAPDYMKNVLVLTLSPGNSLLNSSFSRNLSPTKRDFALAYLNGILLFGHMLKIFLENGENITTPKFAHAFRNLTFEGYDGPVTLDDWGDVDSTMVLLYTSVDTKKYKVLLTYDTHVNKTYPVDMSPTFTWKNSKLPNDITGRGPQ
substance,measurement,setting,value
"5F9: Human anti-GCC mAb (IgG2, kappa) of hybridoma 5F9, ATCC PTA-8132; VH SEQ ID NO:18, VL SEQ ID NO:20; also engineered as IgG1",ka (M^−1s^−1),[1]; listed as Prep A 5F9,1.10 (0.13) × 10^5 M^−1s^−1
same,kd (s^−1),[1]; listed as Prep A 5F9,1.46 (0.59) × 10^−5 s^−1
same,ka (M^−1s^−1),[1]; listed as Prep B 5F9,1.07 (0.25) × 10^5 M^−1s^−1
same,kd (s^−1),[1]; listed as Prep B 5F9,1.13 (0.54) × 10^−5 s^−1
same,ka,[1]; listed as Prep A 5F9,96400 M⁻¹ s⁻¹ and 106000 M⁻¹ s⁻¹ and 120000 M⁻¹ s⁻¹ and 107000 M⁻¹ s⁻¹ and 122000 M⁻¹ s⁻¹
same,kd,[1]; listed as Prep A 5F9,1.77e-05 s⁻¹ and 1.19e-05 s⁻¹ and 1.1e-05 s⁻¹ and 2.15e-05 s⁻¹ and 1.11e-05 s⁻¹
same,ka,[1]; listed as Prep B 5F9,96800 M⁻¹ s⁻¹ and 120000 M⁻¹ s⁻¹ and 90900 M⁻¹ s⁻¹ and 121000 M⁻¹ s⁻¹
same,kd,[1]; listed as Prep B 5F9,7.64e-06 s⁻¹ and 1.24e-05 s⁻¹ and 9.57e-06 s⁻¹ and 1.54e-05 s⁻¹
same,Binding to GCC ECD truncation mutant,[2],binds cells with the Δ1-32 mutation
